Paper PMC6149822, “A New Series of Pyrrole-Based Chalcones: Synthesis and Evaluation of Antimicrobial Activity, Cytotoxicity, and Genotoxicity” (Molecules : A Journal of Synthetic Chemistry and Natural …, 2017)
Converted amounts (≈) assume the structure as drawn.

Legend:
E. faecalis (ATCC 29212) [1] = assay: ATP luminescence microbial cell viability assay; assay type: cell-based, Enterococcus faecalis; settings: 24 h treatment, result in words
Protocol: (§1) A model from BioTek Instruments Inc. combined with a BacTiter-Glo^TM Microbial Cell Viability assay (Promega Corp., Madison, WI, USA) was used to provide a sensitive and rapid method for determining the number of viable microbial cells in culture based on quantitation of the ATP present. […] After incubation, cultures were added into the wells (final concentration of bacteria was 5 × 10^5 CFU/mL and 2.5 × 10^6 CFU/mL for yeasts). After adding the BacTiter reagent, incubation time for bacteria and yeasts was 5 min and 15 min, respectively.
The assay generates a “glow-type” luminescent signal, produced by the luciferase reaction. Briefly, after chemicals and strains were incubated for 24 h, 100 µL of the culture was taken from each well and mixed with the same volume of the BacTiter-Glo™ reagent in a white, opaque-walled microtiter plate. Control wells containing medium without cells were prepared to obtain a value for background luminescence. Cells without compound were used as an ATP-positive control. The microplates were further incubated under agitation for 7 min. Bioluminescence was recorded in a multi-detection microplate reader (BioTek Synergy 2 Multi-Mode Microplate Reader, BioTek Instruments, Winooski, VT, USA). In Figure 3, results were given as percentage of untreated control, which is set at 100%. Experiments were performed in triplicate and each sample was measured in four replicates.

[2] = tested on: A549 human lung adenocarcinoma cell line; assay: MTT assay; assay type: cell-based; settings: Homo sapiens, A549
Protocol: (§2) The anticancer effects of compounds 1–10 on A549 human lung adenocarcinoma (ATCC® CCL-185™), HepG2 human hepatocellular carcinoma (ATCC® HB-8065™), and C6 rat glioma (ATCC® CCL107™) cell lines were assessed using 3-(4,5-Dimethylthiazol-2-yl)-2,5-diphenyltetrazolium bromide (MTT) assay, whereas the selectivity of compounds 1–10 was tested using NIH/3T3 mouse embryonic fibroblast cell line (ATCC® CRL-1658™, London, UK). All cell lines were incubated according to the supplier’s recommendations. The cells were seeded as 1 × 10^4 cells into each well of the 96-well plates. MTT assay was performed as previously described. The compounds were tested between the concentrations equal to 1 mM and 0.000316 mM (1.0, 0.316, 0.10, 0.0316, 0.01, 0.00316, 0.001, 0.000316 mM). Stock solutions of compounds were prepared in dimethyl sulfoxide (DMSO) and further dilutions were made with fresh culture medium. The final DMSO concentration was under 1% [34] and cisplatin was used as a positive control. Inhibition % was calculated for each concentration according to the formula below, and IC50 values were determined by plotting a dose–response curve of inhibition % versus compound concentrations tested. All experiments were performed in quadruplicate.Inhibition % = 100 − [(ODtest compound − ODblank/ODsolvent control − ODblank)] × 100(1)

C6 rat glioma cell line = assay: MTT assay; assay type: cell-based; settings: Rattus norvegicus, C6
Protocol: as §2

[3] = tested on: HepG2 human hepatocellular carcinoma cell line; assay: MTT assay; assay type: cell-based; settings: Homo sapiens, HepG2
Protocol: as §2

[4] = tested on: NIH/3T3 mouse embryonic fibroblast cell line; assay: MTT assay; assay type: cell-based; settings: Mus musculus, NIH3T3, healthy cells for selectivity
Protocol: as §2

C. albicans = assay: ATP luminescence microbial cell viability assay; assay type: cell-based, Candida albicans; settings: 24 h treatment, result in words
Protocol: as §1
The assay generates a “glow-type” luminescent signal, produced by the luciferase reaction. Briefly, after chemicals and strains were incubated for 24 h, 100 µL of the culture was taken from each well and mixed with the same volume of the BacTiter-Glo™ reagent in a white, opaque-walled microtiter plate. Control wells containing medium without cells were prepared to obtain a value for background luminescence. Cells without compound were used as an ATP-positive control. The microplates were further incubated under agitation for 7 min. Bioluminescence was recorded in a multi-detection microplate reader (BioTek Synergy 2 Multi-Mode Microplate Reader, BioTek Instruments, Winooski, VT, USA). […] Experiments were performed in triplicate and each sample was measured in four replicates.

C. krusei (ATCC 6258) = assay: Microdilution susceptibility assay (MIC); assay type: cell-based, Candida krusei; settings: Pichia kudriavzevii, ATCC6258
Protocol: (§3) Compounds 1–10 were screened for their antimicrobial activity against gram-negative bacteria, gram-positive bacteria, and yeasts, listed in Table 1. Bacteria were grown in Mueller-Hinton Broth and yeasts were grown in Sabouraud Dextrose Broth (SDB) during experiments. Overnight cultures were prepared routinely by subculturing of stock culture onto Mueller-Hinton Agar for bacteria and Sabouraud Dextrose Agar for yeasts.
(§4) Microdilution susceptibility assay was used for the determination of antibacterial and anticandidal efficacy of compounds 1–10. Chloramphenicol and ketoconazole were used as positive controls for bacteria and yeasts, respectively. All experiments were designed according to the Clinical Laboratory Standards Institute (CLSI). All chemicals were dissolved in dimethyl sulfoxide (DMSO) to obtain stock solution (10 mg/mL). Two-fold serial dilutions (800, 400, 200...0.78 µg/mL) of the compounds were prepared from stock solutions with dH2O. 100 µL of each solution was transferred to 96-well microtiter plates and 100 µL of 10^6 CFU/mL of bacteria and 2 × 10^3 of CFU/mL yeast were added to related wells. As negative controls, wells including microorganisms without agents and wells including agents without microorganisms were used. The plates were kept at 35 °C for 18–20 h and the growth was determined with resazurin (20 mg/mL). Assays were carried out in triplicate.

S. aureus (ATCC 25923) = assay: Microdilution susceptibility assay (MIC); assay type: cell-based; settings: Staphylococcus aureus, ATCC25923
Protocol: as §3, §4

[5] = tested on: K. pneumoniae (ATCC 700603); assay: Microdilution susceptibility assay (MIC); assay type: cell-based; settings: Klebsiella pneumoniae, ATCC700603
Protocol: as §3, §4

E. coli (ATCC 25922) = assay: Microdilution susceptibility assay (MIC); assay type: cell-based; settings: Escherichia coli, ATCC25922
Protocol: as §3, §4

E. faecalis (ATCC 29212) [6] = assay: Microdilution susceptibility assay (MIC); assay type: cell-based; settings: Enterococcus faecalis, ATCC29212
Protocol: as §3, §4

C. albicans (ATCC 90028) = assay: Microdilution susceptibility assay (MIC); assay type: cell-based; settings: Candida albicans, ATCC90028
Protocol: as §3, §4

E. faecalis (ATCC 51299) = assay: Microdilution susceptibility assay (MIC); assay type: cell-based; settings: Enterococcus faecalis, ATCC51299
Protocol: as §3, §4

[7] = tested on: C. parapsilosis (ATCC 22019); assay: Microdilution susceptibility assay (MIC); assay type: cell-based, Candida parapsilosis; settings: Lodderomyces parapsilosis, ATCC22019
Protocol: as §3, §4

C. glabrata (ATCC 90030) = assay: Microdilution susceptibility assay (MIC); assay type: cell-based, Candida glabrata; settings: Nakaseomyces glabratus, ATCC90030
Protocol: as §3, §4

IC50 [2]: > 322 µg/mL
IC50 (C6 rat glioma cell line): > 322 µg/mL
IC50 [3]: 27 µg/mL (≈ 83.8 µM)
melting point: 94 to 95 °C
MIC (C. krusei (ATCC 6258)): 100 µg/mL (≈ 310 µM)
MIC (S. aureus (ATCC 25923)): 100 µg/mL (≈ 310 µM)
MIC [5]: 200 µg/mL (≈ 621 µM)
MIC (E. coli (ATCC 25922)): 100 µg/mL (≈ 310 µM)
MIC (E. faecalis (ATCC 29212) [6]): 100 µg/mL (≈ 310 µM)
MIC (C. albicans (ATCC 90028)): 50 µg/mL (≈ 155 µM)
MIC (E. faecalis (ATCC 51299)): 200 µg/mL (≈ 621 µM)
MIC [7]: 50 µg/mL (≈ 155 µM)
MIC (C. glabrata (ATCC 90030)): 100 µg/mL (≈ 310 µM)
SMILES: Cn1cccc1C(=O)C=Cc1ccc(-c2ccccc2[N+](=O)[O-])o1 [Compound 3, 1-(1-Methyl-1H-pyrrol-2-yl)-3-(5-(2-nitrophenyl)furan-2-yl)prop-2-en-1-one]
antimicrobial activity in ATP bioluminescence assay (E. faecalis (ATCC 29212) [1]): sensitive
IC50 [4]: > 322 µg/mL
antifungal activity in ATP bioluminescence assay (C. albicans): no statistically significant effects
